Assay results: PubChem BioAssay (NCI)
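GI50 marks 50% less growth. TGI marks complete inhibition of growth.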

Legend:
Assay in all cases: NCI anticancer screen, dose series, 384-well format
LOX IMVI melanoma = tested on: LOX IMVI melanoma
HCT-15 colon = tested on: HCT-15 colon
HCT-116 colon = tested on: HCT-116 colon
TK-10 renal = tested on: TK-10 renal
U251 glioblastoma = tested on: U251 glioblastoma
KM12 colon = tested on: KM12 colon
NCI-H322M lung = tested on: NCI-H322M lung
786-0 renal = tested on: 786-0 renal
SF-268 CNS = tested on: SF-268 CNS
SNB-75 CNS = tested on: SNB-75 CNS
UACC-62 melanoma = tested on: UACC-62 melanoma
SNB-19 CNS = tested on: SNB-19 CNS
SF-539 CNS = tested on: SF-539 CNS
OVCAR-8 ovarian = tested on: OVCAR-8 ovarian
ACHN renal = tested on: ACHN renal
SK-OV-3 ovarian = tested on: SK-OV-3 ovarian
A498 renal = tested on: A498 renal
MCF7 breast = tested on: MCF7 breast
HOP-92 NSCLC = tested on: HOP-92 NSCLC
HCC-2998 colon = tested on: HCC-2998 colon
MALME-3M melanoma = tested on: MALME-3M melanoma
PC-3 prostate = tested on: PC-3 prostate
NCI-H23 lung = tested on: NCI-H23 lung
BT-549 breast = tested on: BT-549 breast
OVCAR-4 ovarian = tested on: OVCAR-4 ovarian
EKVX NSCLC = tested on: EKVX NSCLC
HOP-62 NSCLC = tested on: HOP-62 NSCLC
SK-MEL-28 melanoma = tested on: SK-MEL-28 melanoma
MDA-MB-231 breast = tested on: MDA-MB-231 breast
SF-295 CNS = tested on: SF-295 CNS
IGROV1 ovarian = tested on: IGROV1 ovarian
NCI-H226 lung = tested on: NCI-H226 lung
A549 NSCLC = tested on: A549 NSCLC
NCI/ADR-RES ovarian = tested on: NCI/ADR-RES ovarian
SK-MEL-5 melanoma = tested on: SK-MEL-5 melanoma
SW-620 colon = tested on: SW-620 colon
UO-31 renal = tested on: UO-31 renal
T-47D breast = tested on: T-47D breast
CAKI-1 renal = tested on: CAKI-1 renal
DU-145 prostate = tested on: DU-145 prostate
SN12C renal = tested on: SN12C renal
CCRF-CEM leukemia = tested on: CCRF-CEM leukemia
HS 578T breast = tested on: HS 578T breast
OVCAR-5 ovarian = tested on: OVCAR-5 ovarian
MDA-MB-468 breast = tested on: MDA-MB-468 breast
RXF 393 renal = tested on: RXF 393 renal
NCI-H522 lung = tested on: NCI-H522 lung
COLO 205 colon = tested on: COLO 205 colon
UACC-257 melanoma = tested on: UACC-257 melanoma
K-562 leukemia = tested on: K-562 leukemia
HT29 colon = tested on: HT29 colon
M14 melanoma = tested on: M14 melanoma
SR leukemia = tested on: SR leukemia
OVCAR-3 ovarian = tested on: OVCAR-3 ovarian
MDA-MB-435 melanoma = tested on: MDA-MB-435 melanoma
NCI-H460 NSCLC = tested on: NCI-H460 NSCLC

## CN1CC[C@H](N(C)C(=O)N2CC(c3cc(F)ccc3F)=C[C@@]2(CO)c2ccccc2)[C@H](F)C1
LOX IMVI melanoma
  TGI: 20 µM
HCT-15 colon
  TGI: 28 µM
HCT-116 colon
  TGI: 14.6 µM
TK-10 renal
  GI50: 4.89 µM
  TGI: 35.3 µM
U251 glioblastoma
  TGI: 14.5 µM
KM12 colon
  TGI: 10.9 µM
NCI-H322M lung
  TGI: 55.6 µM
786-0 renal
  TGI: 12.4 µM
SF-268 CNS
  TGI: 11.7 µM
SNB-75 CNS
  TGI: 27.4 µM
UACC-62 melanoma
  TGI: 16.5 µM
SNB-19 CNS
  TGI: 27.5 µM
SF-539 CNS
  TGI: 11.6 µM
OVCAR-8 ovarian
  TGI: 11.4 µM
ACHN renal
  GI50: 9.3 µM
  TGI: > 100 µM
SK-OV-3 ovarian
  TGI: 26.8 µM
A498 renal
  TGI: 13 µM
MCF7 breast
  TGI: 35.4 µM
HOP-92 NSCLC
  GI50: 0.198 µM
  TGI: 32.6 µM
HCC-2998 colon
  TGI: 13.3 µM
MALME-3M melanoma
  TGI: 14.5 µM
PC-3 prostate
  TGI: 27.1 µM
NCI-H23 lung
  TGI: 0.0371 µM
BT-549 breast
  TGI: 13.6 µM
OVCAR-4 ovarian
  GI50: 21.6 µM
  TGI: > 100 µM
EKVX NSCLC
  TGI: 28.2 µM
HOP-62 NSCLC
  TGI: 25.9 µM
SK-MEL-28 melanoma
  GI50: 0.646 µM
  TGI: 19.5 µM
MDA-MB-231 breast
  TGI: > 100 µM
SF-295 CNS
  TGI: 1.28 µM
IGROV1 ovarian
  GI50: 6.07 µM
  TGI: > 100 µM
NCI-H226 lung
  TGI: 8.16 µM
A549 NSCLC
  TGI: > 100 µM
NCI/ADR-RES ovarian
  TGI: 0.0135 µM
SK-MEL-5 melanoma
  TGI: 1.07 µM
SW-620 colon
  TGI: > 100 µM
UO-31 renal
  GI50: 3.34 µM
  TGI: 95.1 µM
T-47D breast
  TGI: 43.1 µM
CAKI-1 renal
  TGI: > 100 µM

## N#CCC1CCN(c2nc(Nc3ccc(N4CCC(O)CC4)cc3)c3c(=O)[nH]ncc3n2)CC1
LOX IMVI melanoma
  GI50: 0.49 µM
  TGI: 2.6 µM
DU-145 prostate
  GI50: 0.704 µM
  TGI: > 100 µM
SN12C renal
  GI50: 0.243 µM
  TGI: > 100 µM
HCT-15 colon
  GI50: 0.453 µM
  TGI: > 100 µM
CCRF-CEM leukemia
  GI50: 0.332 µM
  TGI: > 100 µM
HS 578T breast
  GI50: 0.673 µM
  TGI: 3.54 µM
HCT-116 colon
  GI50: 0.336 µM
  TGI: > 100 µM
TK-10 renal
  GI50: 0.425 µM
  TGI: 4.85 µM
OVCAR-5 ovarian
  GI50: 0.602 µM
  TGI: > 100 µM
SF-268 CNS
  GI50: 1.43 µM
  TGI: 9.43 µM
MDA-MB-468 breast
  GI50: 1.01 µM
  TGI: 3.47 µM
SNB-75 CNS
  GI50: 1.24 µM
  TGI: 3.17 µM
SNB-19 CNS
  GI50: 2.75 µM
  TGI: > 100 µM
RXF 393 renal
  GI50: 0.893 µM
  TGI: 3.27 µM
SF-539 CNS
  GI50: 0.793 µM
  TGI: 2.39 µM
OVCAR-8 ovarian
  GI50: 5.18 µM
  TGI: > 100 µM
ACHN renal
  GI50: 0.547 µM
  TGI: > 100 µM
NCI-H522 lung
  GI50: 0.196 µM
  TGI: 0.929 µM
SK-OV-3 ovarian
  GI50: 0.235 µM
  TGI: 4.81 µM
A498 renal
  GI50: 0.804 µM
  TGI: > 100 µM
MCF7 breast
  GI50: 0.254 µM
  TGI: > 100 µM
HOP-92 NSCLC
  GI50: 0.329 µM
  TGI: > 100 µM
HCC-2998 colon
  GI50: 0.378 µM
  TGI: 2.91 µM
MALME-3M melanoma
  GI50: 0.472 µM
  TGI: > 100 µM
PC-3 prostate
  GI50: > 100 µM
  TGI: > 100 µM
COLO 205 colon
  GI50: 0.24 µM
  TGI: 0.921 µM
UACC-257 melanoma
  GI50: > 100 µM
  TGI: > 100 µM
NCI-H23 lung
  GI50: 0.293 µM
  TGI: > 100 µM
BT-549 breast
  GI50: 0.538 µM
  TGI: 2.25 µM
OVCAR-4 ovarian
  GI50: > 100 µM
  TGI: > 100 µM
K-562 leukemia
  GI50: 0.482 µM
  TGI: > 100 µM
HT29 colon
  GI50: 0.427 µM
  TGI: > 100 µM
EKVX NSCLC
  GI50: 0.277 µM
  TGI: > 100 µM
M14 melanoma
  GI50: 0.346 µM
  TGI: > 100 µM
SR leukemia
  GI50: 0.18 µM
  TGI: 0.327 µM
HOP-62 NSCLC
  GI50: 3.71 µM
  TGI: > 100 µM
SK-MEL-28 melanoma
  GI50: 0.81 µM
  TGI: > 100 µM
MDA-MB-231 breast
  GI50: 5.42 µM
  TGI: > 100 µM
OVCAR-3 ovarian
  GI50: 1.13 µM
  TGI: > 100 µM
IGROV1 ovarian
  GI50: 0.239 µM
  TGI: 3.48 µM
NCI-H226 lung
  GI50: 0.281 µM
  TGI: > 100 µM
A549 NSCLC
  GI50: 0.365 µM
  TGI: > 100 µM
MDA-MB-435 melanoma
  GI50: 0.311 µM
  TGI: > 100 µM
SK-MEL-5 melanoma
  GI50: 0.338 µM
  TGI: > 100 µM
SW-620 colon
  GI50: 0.441 µM
  TGI: 2.21 µM
T-47D breast
  GI50: 4.39 µM
  TGI: > 100 µM
NCI-H460 NSCLC
  GI50: 0.319 µM
  TGI: > 100 µM
CAKI-1 renal
  GI50: 0.349 µM
  TGI: > 100 µM
